Laboratory results reported in patent US20260166039A1 (SCHRÖDINGER, INC., priority 2022, published 2026).
Read-outs that look alike come from different tables or passages of the source.

What was measured:
Wee1 kinase domain = molecular target: T1, Wee1 kinase domain (Homo sapiens, UniProt P30291); assay: Wee1 Kinase Biochemical Assay (ADP-Glo); settings: 15 uM ATP
T1 construct: Wee1 kinase domain was purchased from Carna (catalog #05-177); purchased Carna 05-177
Method in brief: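 ADP-Glo detection of ADP produced after 4 h at 25° C by 1 nM Wee1 kinase domain on 2 ng/mL poly(Lys,Tyr 4:1) with 15 uM ATP. Buffer: 40 mM Tris-HCl, 20 mM MgCl2, 0.1 mg/mL BSA, 2 mM DTT. Inhibition is relative to DMSO (high) and saturating Wee1 inhibitor (low) controls.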

[1] = system: phosphorylation of Cdc2 Y15 (Wee1 substrate) in A427 cells; assay: Phosphorylated Cdc2 MSD Electrochemiluminescence Assay; assay type: cell-based; settings: Homo sapiens
Method in brief: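 Read-out: percent residual phospho-Cdc2 Y15 relative to DMSO and positive-control Wee1 inhibitor, measured by MSD electrochemiluminescence capture/detection antibody assay in cell lysates. A427 cells received duplicate 3-fold compound dilution series 20 h post-seeding, with 6 h total incubation at 37 °C.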

[2] = class symbols, 1 nM Wee1 enzyme, 4 hours at 25° C.
[3] = A-427, class symbols, read-out: A427 pCDC2 MSD IC50

T1 sequence (P30291 299-569 limits assumed): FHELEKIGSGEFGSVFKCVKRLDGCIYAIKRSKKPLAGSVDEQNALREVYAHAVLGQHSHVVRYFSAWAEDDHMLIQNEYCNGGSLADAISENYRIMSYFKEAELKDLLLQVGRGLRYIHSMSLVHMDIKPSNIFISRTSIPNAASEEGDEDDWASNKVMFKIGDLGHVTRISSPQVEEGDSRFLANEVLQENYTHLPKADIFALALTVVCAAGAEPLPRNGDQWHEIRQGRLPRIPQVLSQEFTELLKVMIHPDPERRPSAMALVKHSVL

Compound | IC50 (Wee1 kinase domain; [2]) | IC50 [1, 3] | IC50 (Wee1 kinase domain; Wee1 kinase domain, ADP-Glo) | IC50 ([1]; A-427, pCDC2 MSD)
CNCc1cccc(N2c3nc(Nc4ccc(N5C[C@H]6C[C@@H](C5)O6)cc4)ncc3[C@@]3(C)COC(C)(C)C[C@@H]23)n1 (single isomer, unassigned) [Example 481] | < 10 nM | 100 to 1000 nM |  | 
CN[C@@H](c1cccc(N2c3nc(Nc4ccc(N5CCN(C)CC5)cc4)ncc3[C@@]3(C)COC(C)(C)C[C@@H]23)n1)C(F)(F)F [Example 756, (4bR,8aR)-4b,7,7-trimethyl-N-(4-(4-methylpiperazin-1-yl)phenyl)-9-(6-((S)-2,2,2-trifluoro-1-(methylamino)ethyl)pyridin-2-yl)-4b,5,7,8,8a,9-hexahydropyrano[3′,4′:4,5]pyrrolo[2,3-d]pyrimidin-2-amine] | < 10 nM | 100 to 1000 nM |  | 
CN1Cc2cc(Nc3ncc4c(n3)N(c3cccc(N=S(C)(C)=O)n3)[C@@H]3CC(C)(C)OC[C@]43C)ccc2C2(CC2)C1 (single isomer, unassigned) [Example 107] |  |  | < 10 nM | < 100 nM

More lines, now with the values ahead:

IC50 (Wee1 kinase domain; [2]) | IC50 [1, 3] | IC50 (Wee1 kinase domain; Wee1 kinase domain, ADP-Glo) | IC50 ([1]; A-427, pCDC2 MSD) | Compound
 |  | < 10 nM | < 100 nM | CNCc1cccc(N2c3nc(Nc4ccc([C@H]5CCC(=O)N5C)cc4)ncc3[C@@]3(C)COC(C)(C)C[C@@H]23)n1 (single isomer, unassigned) [Example 54]
 |  | < 10 nM | 100 to 1000 nM | CNCc1cccc(N2c3nc(Nc4ccc(N5CCCOCC5)cc4)ncc3[C@@]3(C)COC(C)(C)C[C@@H]23)n1 (single isomer, unassigned) [Example 18]
< 10 nM | 100 to 1000 nM |  |  | CC1(C)C[C@H]2N(c3cccc(C4(F)CNC4)n3)c3nc(Nc4ccc(N5CCOCC5)cc4)ncc3[C@@]2(C)CO1 (single isomer, unassigned) [Example 545]
